These results are taken from ChEMBL document CHEMBL1201862, “PubChem BioAssay data set” (2004).

The target in one experiment is T1, Caspase-3 (Homo sapiens, UniProt P42574).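 Further: Dose-response selectivity test against caspase-3 for candidate inhibitors of sentrin-specific proteases (SENPs).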
T1 sequence (P42574 whole entry): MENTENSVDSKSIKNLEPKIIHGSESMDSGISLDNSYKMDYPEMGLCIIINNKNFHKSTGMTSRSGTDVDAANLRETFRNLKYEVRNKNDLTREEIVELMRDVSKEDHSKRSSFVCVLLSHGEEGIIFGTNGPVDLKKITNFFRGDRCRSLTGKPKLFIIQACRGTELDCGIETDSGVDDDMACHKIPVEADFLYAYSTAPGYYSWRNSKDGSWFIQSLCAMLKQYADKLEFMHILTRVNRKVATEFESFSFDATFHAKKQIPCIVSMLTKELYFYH
The class given is functional.

Experiment [1] concerns the target T2, Sentrin-specific protease 6 (Homo sapiens, UniProt Q9GZR1).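 Further: Luminescence-based dose-response confirmatory assay of SENP6 inhibition, following up an ultra-high-throughput screen.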
T2 sequence (Q9GZR1 whole entry): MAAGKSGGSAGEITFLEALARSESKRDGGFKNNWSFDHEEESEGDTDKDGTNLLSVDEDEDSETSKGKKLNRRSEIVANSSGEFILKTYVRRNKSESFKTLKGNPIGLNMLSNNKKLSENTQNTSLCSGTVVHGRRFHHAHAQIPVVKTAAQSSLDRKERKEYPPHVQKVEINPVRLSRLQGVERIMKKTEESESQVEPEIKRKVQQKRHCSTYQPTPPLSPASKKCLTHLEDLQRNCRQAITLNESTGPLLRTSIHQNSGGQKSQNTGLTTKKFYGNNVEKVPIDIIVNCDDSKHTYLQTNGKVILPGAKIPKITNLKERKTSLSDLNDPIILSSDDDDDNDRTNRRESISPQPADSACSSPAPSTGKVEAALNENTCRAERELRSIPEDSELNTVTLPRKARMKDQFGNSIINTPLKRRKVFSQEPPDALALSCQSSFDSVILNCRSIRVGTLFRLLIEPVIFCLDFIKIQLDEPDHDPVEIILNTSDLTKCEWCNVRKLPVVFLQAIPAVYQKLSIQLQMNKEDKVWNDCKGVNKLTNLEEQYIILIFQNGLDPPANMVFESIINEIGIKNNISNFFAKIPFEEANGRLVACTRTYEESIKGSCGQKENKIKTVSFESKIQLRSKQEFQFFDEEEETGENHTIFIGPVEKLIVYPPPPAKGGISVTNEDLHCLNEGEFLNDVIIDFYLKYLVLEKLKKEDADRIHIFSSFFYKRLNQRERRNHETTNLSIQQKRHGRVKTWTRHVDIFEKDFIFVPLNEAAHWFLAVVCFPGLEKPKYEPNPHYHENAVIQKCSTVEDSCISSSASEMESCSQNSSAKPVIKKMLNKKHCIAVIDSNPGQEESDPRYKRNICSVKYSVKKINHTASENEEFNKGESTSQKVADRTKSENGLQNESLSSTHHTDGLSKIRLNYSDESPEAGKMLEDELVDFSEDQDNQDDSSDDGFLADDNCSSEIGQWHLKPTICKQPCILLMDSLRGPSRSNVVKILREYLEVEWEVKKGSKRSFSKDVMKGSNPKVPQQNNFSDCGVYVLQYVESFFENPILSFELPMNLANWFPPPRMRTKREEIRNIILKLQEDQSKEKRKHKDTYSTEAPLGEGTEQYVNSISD
The class given is functional.

Experiment [2] concerns the target T3, Sentrin-specific protease 7 (Homo sapiens, UniProt Q9BQF6).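 Further: Luminescence-based dose-response confirmation of ultra-high-throughput screening hits, measuring inhibition of SENP7.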
T3 sequence (Q9BQF6 whole entry): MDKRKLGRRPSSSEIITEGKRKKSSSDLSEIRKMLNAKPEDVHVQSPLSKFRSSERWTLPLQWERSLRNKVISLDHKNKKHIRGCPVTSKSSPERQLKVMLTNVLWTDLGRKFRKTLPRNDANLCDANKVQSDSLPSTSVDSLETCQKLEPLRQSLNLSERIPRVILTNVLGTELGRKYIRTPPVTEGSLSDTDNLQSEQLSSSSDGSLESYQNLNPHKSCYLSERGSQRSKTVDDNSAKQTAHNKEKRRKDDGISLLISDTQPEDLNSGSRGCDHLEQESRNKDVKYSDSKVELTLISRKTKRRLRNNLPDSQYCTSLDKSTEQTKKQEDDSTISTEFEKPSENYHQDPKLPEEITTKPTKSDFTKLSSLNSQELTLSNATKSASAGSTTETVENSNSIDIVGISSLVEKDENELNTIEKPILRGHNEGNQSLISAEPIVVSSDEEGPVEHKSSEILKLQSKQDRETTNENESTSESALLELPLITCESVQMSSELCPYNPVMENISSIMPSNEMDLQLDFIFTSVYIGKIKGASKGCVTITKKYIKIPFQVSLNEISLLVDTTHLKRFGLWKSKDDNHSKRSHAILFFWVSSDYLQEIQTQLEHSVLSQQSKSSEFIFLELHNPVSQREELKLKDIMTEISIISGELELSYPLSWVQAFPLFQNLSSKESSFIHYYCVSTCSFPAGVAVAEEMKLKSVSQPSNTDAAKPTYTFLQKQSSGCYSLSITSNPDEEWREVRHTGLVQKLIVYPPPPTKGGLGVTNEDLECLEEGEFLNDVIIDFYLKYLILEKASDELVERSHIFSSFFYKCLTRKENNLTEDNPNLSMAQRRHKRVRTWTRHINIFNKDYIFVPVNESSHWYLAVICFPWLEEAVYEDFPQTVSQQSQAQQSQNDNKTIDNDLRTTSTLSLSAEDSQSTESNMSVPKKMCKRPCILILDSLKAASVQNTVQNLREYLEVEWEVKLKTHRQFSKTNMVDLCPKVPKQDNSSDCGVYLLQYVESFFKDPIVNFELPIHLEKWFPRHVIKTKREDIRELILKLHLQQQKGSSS
The class given is functional.

Experiment [3] deals with T4, Sentrin-specific protease 8 (Homo sapiens, UniProt Q96LD8).
T4 sequence (Q96LD8 whole entry): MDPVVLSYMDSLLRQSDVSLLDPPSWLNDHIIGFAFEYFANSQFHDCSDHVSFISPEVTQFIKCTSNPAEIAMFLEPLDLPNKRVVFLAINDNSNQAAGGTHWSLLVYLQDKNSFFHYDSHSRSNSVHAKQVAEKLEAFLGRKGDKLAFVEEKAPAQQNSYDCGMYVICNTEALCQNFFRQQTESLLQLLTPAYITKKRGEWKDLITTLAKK
The class given is functional.

The target in experiment [4] is T5, Calpain-2 catalytic subunit (Sus scrofa, UniProt P43367).
T5 sequence (P43367 whole entry): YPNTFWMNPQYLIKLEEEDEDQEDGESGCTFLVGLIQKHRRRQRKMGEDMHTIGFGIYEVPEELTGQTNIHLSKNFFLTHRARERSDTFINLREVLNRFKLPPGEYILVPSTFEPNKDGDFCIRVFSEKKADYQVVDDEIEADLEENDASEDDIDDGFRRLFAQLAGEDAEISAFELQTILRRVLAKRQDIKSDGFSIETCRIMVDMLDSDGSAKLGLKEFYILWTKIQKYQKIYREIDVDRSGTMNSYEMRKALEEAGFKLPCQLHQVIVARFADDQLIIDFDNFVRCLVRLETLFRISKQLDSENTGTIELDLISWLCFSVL
Kind of experiment: m-calpain protease blockers, concentration series – biochemical, fluorogenic peptide substrate, dose response (AID 1420). The class given is functional.

Experiment [5] addresses T6, DNA dC->dU-editing enzyme APOBEC-3G (Homo sapiens, UniProt Q9HC16). The class given is functional.
Experiment [6] addresses T7, DNA dC->dU-editing enzyme APOBEC-3A (Homo sapiens, UniProt P31941). Kind of experiment: Dose Response confirmation of small molecule APOBEC3A DNA Deaminase Inhibitors via a fluorescence-based single-stranded DNA deaminase assay. [Related pubchem assays (depositor defined):AID493011, AID493024]. Format: functional.
The target of experiment [7] is T6, DNA dC->dU-editing enzyme APOBEC-3G. Kind of experiment: Dose Response confirmation of small molecule APOBEC3G DNA Deaminase Inhibitors via a fluorescence-based single-stranded DNA deaminase assay. [Related pubchem assays (depositor defined):AID493012, AID493028]. The class given is functional.
Experiment [8] has as its target T7, DNA dC->dU-editing enzyme APOBEC-3A. Kind of experiment: A3A deaminase inhibition for selectivity – biochemical, dose response (AID 504722). The class given is functional.
Experiment [9] is described as follows: HEK-293T viability loss after treatment – luminescence, T-cell screen hits, cytotoxicity control for TCR NF-kB inhibitor project, dose response (AID 489026).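 Further: cells exposed to compound about 14 hours before the viability readout.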 The class given is functional, cell-based.
Experiment [10] in a line: reduction of Shn3 3'UTR-driven luciferase in osteoblasts – cell-based, Clone20 osteoblasts, firefly luciferase, cherry-picked, dose response (AID 624132).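 Further: firefly luciferase luminescence from reporter carrying the Shn3 3'UTR in osteoblasts.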 The class given is functional.
Experiment [11] can be described thus: loss of viability in HepG2 cells – cell-based, CellTiter-Glo, cherry-picked, cytotoxicity control for Shn3 inhibitor project, dose response (AID 624134). The class given is functional. In general terms: Cellular ATP, detected with luciferase, serves as a proxy for viable cell number.
Experiment [12] in a line: non-specific 3'UTR reporter inhibition in Clone20-Shn3RL – cell-based, Renilla luciferase, cherry-picked, counter-screen for Shn3 inhibitor project, dose response (AID 624133). The class given is functional. In general terms: A counterscreen serves to expose hits that act by an unwanted route or on another target.
For another experiment, the system named is HEK293. The experiment can be described thus: EBV LMP1 TES2 canonical NF-kB signalling blockers – cell-based, HEK293, luciferase, cherry-pick, dose response (AID 588343). Format: functional. As to conditions: Homo sapiens.
Experiment [13] addresses Glucose-6-phosphate 1-dehydrogenase (Homo sapiens, UniProt P11413). Kind of experiment: inhibition of Homo sapiens G6PD, dose series – biochemical, fluorescence, selectivity assay for P. falciparum G6PD inhibitor project, dose response (AID 504792). Format: functional.
A short description of experiment [14]: viability of uninfected HEp-2 cells – cell-based, HTS, cytotoxicity control for RSV inhibitor project, dose response (AID 2410). Format: functional. As to conditions: human respiratory syncytial virus.
The target in a further experiment is Cytochrome P450 2D6 (Homo sapiens, UniProt P10635).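 Further: CYP2D6 member of a cytochrome P450 panel assay.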
Chain of Cytochrome P450 2D6 (P10635 whole entry): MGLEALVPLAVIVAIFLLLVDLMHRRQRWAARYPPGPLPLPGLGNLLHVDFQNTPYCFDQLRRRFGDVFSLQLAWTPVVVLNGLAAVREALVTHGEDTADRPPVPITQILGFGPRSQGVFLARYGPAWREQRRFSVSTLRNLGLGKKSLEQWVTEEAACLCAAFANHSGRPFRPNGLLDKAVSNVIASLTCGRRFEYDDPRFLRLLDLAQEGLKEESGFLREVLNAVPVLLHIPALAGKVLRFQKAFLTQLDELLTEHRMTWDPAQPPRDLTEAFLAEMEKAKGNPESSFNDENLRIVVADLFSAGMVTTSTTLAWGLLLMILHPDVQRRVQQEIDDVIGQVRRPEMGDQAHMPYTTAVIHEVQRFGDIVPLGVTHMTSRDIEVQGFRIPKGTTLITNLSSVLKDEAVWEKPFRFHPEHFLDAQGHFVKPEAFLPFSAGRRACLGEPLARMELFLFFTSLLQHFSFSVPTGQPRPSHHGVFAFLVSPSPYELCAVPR

Activity calls are given as the source filed them. Some results are limits rather than exact numbers.

T7 sequence (P31941 whole entry): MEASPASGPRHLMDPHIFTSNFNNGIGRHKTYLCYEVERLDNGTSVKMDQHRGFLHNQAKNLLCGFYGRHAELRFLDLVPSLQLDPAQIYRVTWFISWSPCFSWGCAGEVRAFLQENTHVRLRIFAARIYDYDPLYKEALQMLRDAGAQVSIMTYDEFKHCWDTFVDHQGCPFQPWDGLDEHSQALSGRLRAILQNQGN
Chain of Glucose-6-phosphate 1-dehydrogenase (P11413 whole entry): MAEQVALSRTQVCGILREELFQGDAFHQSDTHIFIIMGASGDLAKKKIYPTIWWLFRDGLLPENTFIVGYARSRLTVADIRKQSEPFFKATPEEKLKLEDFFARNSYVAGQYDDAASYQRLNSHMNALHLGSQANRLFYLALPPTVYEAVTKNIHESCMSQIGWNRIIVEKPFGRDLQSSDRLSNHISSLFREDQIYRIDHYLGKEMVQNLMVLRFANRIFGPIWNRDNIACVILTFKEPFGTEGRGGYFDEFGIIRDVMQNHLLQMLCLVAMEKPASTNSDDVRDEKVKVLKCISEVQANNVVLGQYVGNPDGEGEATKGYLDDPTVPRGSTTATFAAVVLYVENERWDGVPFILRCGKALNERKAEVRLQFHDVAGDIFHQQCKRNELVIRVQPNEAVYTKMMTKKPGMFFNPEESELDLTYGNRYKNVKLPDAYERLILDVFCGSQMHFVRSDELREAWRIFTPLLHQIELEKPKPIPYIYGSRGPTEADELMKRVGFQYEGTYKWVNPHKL
T6 sequence (Q9HC16 whole entry): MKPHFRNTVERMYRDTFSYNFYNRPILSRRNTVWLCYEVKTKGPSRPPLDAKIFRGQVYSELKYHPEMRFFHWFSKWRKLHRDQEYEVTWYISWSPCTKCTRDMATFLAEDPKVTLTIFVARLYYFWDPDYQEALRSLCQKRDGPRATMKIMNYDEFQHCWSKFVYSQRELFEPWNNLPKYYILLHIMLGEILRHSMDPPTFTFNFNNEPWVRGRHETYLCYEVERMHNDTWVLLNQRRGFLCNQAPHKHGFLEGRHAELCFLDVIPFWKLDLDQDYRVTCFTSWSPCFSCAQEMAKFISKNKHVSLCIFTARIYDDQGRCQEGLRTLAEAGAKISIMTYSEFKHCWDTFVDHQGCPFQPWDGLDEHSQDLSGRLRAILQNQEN

For `CCOC(=O)c1c(C)[nH]c(N=Nc2cccc(C)c2)c1C`, the IC50 is 40.3 µM (active) on Caspase-3, 18 µM (active) in [1], 5.37 µM (active) in [2] and 14.7 µM (active) in [3].

`CCCc1ccc(OC(=O)c2ccc(O)cc2Cl)cc1`: the IC50 on Caspase-3 is 38.4 µM (active); in experiment [1], 8.84 µM (active); in experiment [2], 8.1 µM (active); in [4], 3.76 µM (not active); in experiment [3], 9.08 µM (active).

With `CCc1n(CC(O)COC2CCCCC2)c2ccccc2[n+]1C` (centres undefined), the IC50 in experiment [5] was 1.42 µM (active); in experiment [6] it was 1.75 µM (active).

Consider `COc1ccc(N2C(=O)CC(Sc3n[nH]c(-c4ccccc4)n3)C2=O)cc1` (centres undefined), for which the IC50 in [7] was 14.9 µM (active); in [8] it was > 100 µM (inactive).

In the case of `COc1cccc(-c2cc(C(=O)Nc3cc(C)n(Cc4ccc(Cl)cc4)n3)no2)c1`, in experiment [9], the IC50 was > 80 µM (inactive).

For the compound `Fc1ccc2[nH]c3c(N4CCN(c5ccccc5)CC4)ncnc3c2c1`, the AC50 in experiment [10] is 3.78 µM (active); in [11], 31.5 µM (active); in [12], 5.5 µM (active); in the experiment with HEK293, 6.19 µM (active).

On to `[O-]/[N+](=C\c1ccncc1)c1ccccc1`, for which the IC50 in experiment [13] was > 80 µM (inactive).

For the compound `O=C(Nc1nnc(S(=O)(=O)N2CCCCC2)s1)c1cccc(Br)c1`, the IC50 in experiment [13] is > 80 µM (inactive).

Consider `O=S(=O)(c1cccc(-c2nnc(S)n2Cc2ccccc2)c1)N1CCOCC1`, for which the IC50 in experiment [7] was 4.28 µM (active); in experiment [8] it was > 100 µM (inactive).

Regarding `O=C(CSc1ccccn1)Nc1cccc2ccccc12`, the results for the IC50 in experiment [5] and in experiment [6] were 6 µM (active) and 8.82 µM (active), respectively.

With `Nc1ccccc1C#Cc1ccc([N+](=O)[O-])cc1`, the IC50 at Caspase-3 is 23.2 µM (active); in experiment [1], 31 µM (active); in experiment [2], 6.02 µM (active); in experiment [3], 80 µM (active).

`O=C(N/N=C/c1cccc(O)c1)c1ccc2c(c1)OCCO2`: the AC50 in the experiment on HEK293 is 0.889 µM (active).

With `Cc1c(Cl)c([N+](=O)[O-])nn1Cc1ccc(C(=O)N/N=C\c2cccc(Br)c2)o1`, the IC50 in [13] was > 80 µM (inactive). Further, in [14], the CC50 is 39.4 µM (active). The AC50 at Cytochrome P450 2D6 was 25.1 µM (inconclusive).

For the compound `O=[N+]([O-])c1ccccc1/C=N/n1c(S)nnc1-c1cccnc1`, the IC50 in [7] is 3.08 µM (active); in [8], > 100 µM (inactive).

Broadly, the IC50 is the concentration that inhibits the measured activity by half. For orientation: AC50 means the concentration at which the activity in the assay is half-maximal. The CC50 is the concentration giving 50% cytotoxicity.
